# Source: patent US20220016277A1, “MACROCYCLIC COMPLEXES OF RADIONUCLIDES AND THEIR USE IN RADIOTHERAPY OF CANCER” (Cornell University, priority 2018, published 2022)
# Test: Organ distribution of ^225Ac complexes following intravenous injection in mice
# Type: in vivo, C57BL/6 mice
# Description: In Vivo Biodistribution of ^225Ac Complexes of Macropa and DOTA. All experiments were approved by the Institutional Animal Care Committee (IACC) of the University of British Columbia and were performed in accordance with the Canadian Council on Animal Care Guidelines. A total of 9 female C57BL/6 mice (6-8 weeks old, 20-25 g) were used for the biodistribution study of each radiometal complex, n=3 for each time point.
# Macropa (100 μL of a 1 mg/mL solution in NH4OAc) was diluted with 387 μL of NH4OAc (1 M, pH 7), and an aliquot (203 μL) of ^225Ac(NO3)3 (˜157 kBq) was then added; the pH of this solution was adjusted to 6.5-7 by the addition of 1 M NaOH (210 μL, trace metal grade). After 5 min at ambient temperature, the reaction solution was analyzed by TLC (0.4 M pH 4 sodium citrate as the eluent), which confirmed >95% radiochemical yield. The reaction was allowed to proceed overnight, and the radiochemical yield was again confirmed to be >95% the following morning. At this time, mice were anesthetized by 2% isoflurane, and approximately 100 μL (10-15 kBq) of the [^225Ac(macropa)]^+ complex were injected into the tail vein of each mouse. After injection, mice were allowed to recover and roam freely in their cages, and were euthanized by CO2 inhalation at 15 min, 1 h, or 5 h (n=3 at each time point) post-injection. Blood was collected by cardiac puncture and placed into an appropriate test tube for scintillation counting. Tissues collected included heart, liver, kidneys, lungs, small intestine, large intestine, brain, bladder, spleen, stomach, pancreas, bone, thyroid, tail, urine, and feces. Tissues were weighed and then counted with a calibrated gamma counter (Packard, Cobra II model 5002) using three energy windows: 60-120 keV (window A), 180-260 keV (window B), and 400-480 keV (window C). Counting was performed both immediately after sacrifice and after 7 days; counts were decay corrected from the time of injection and then converted to the percentage of injected dose (% ID) per gram of tissue (% ID/g). […]
# The biodistribution studies of [^225Ac(DOTA)]^− and ^225Ac(NO3)3 were carried out as described above for [^225Ac(macropa)]^+, with the following modifications. [^225Ac(DOTA)^− was prepared by adding ^225Ac(NO3)3 (338 μL, 1.1 MBq) to a solution of DOTA (100 μg, 20 mg/mL in H2O) in NH4OAc (467 μL, 0.15 M, pH 7). The pH of the solution was adjusted to 7 using NH4OAc (150 μL, 1 M, pH 7) and the solution was heated at 85° C. for 45 min. RCY >99% was confirmed by TLC as described above. [^225Ac(DOTA)]^− was diluted with saline to a final concentration of 0.05 MBq/100 μL, and 100 μL were injected into each mouse. ^225Ac(NO3)3 (˜58 μL, 0.4 MBq) was diluted and injected in the same manner as [^225Ac(DOTA)]^−. One mouse that was to be euthanized at the 5 h time point in the [^225Ac(DOTA)]^− study died shortly after injection. In the same manner, one mouse that was to be euthanized at the 1 h time point in the ^225Ac(NO3)3 study died.
# The in vivo stability [^225Ac(macropa)]^+ was examined by comparing its biodistribution to those of ^225Ac(NO3)3 and [^225Ac(DOTA)]^−. C57BL/6 mice were injected via tail vein with 10-50 kBq of each radiometal complex and were sacrificed after 15 min, 1 h, or 5 h. The amount of ^225Ac retained in each organ was quantified by gamma counting and reported as the percent of injected dose per gram of tissue (% ID/g). The results of these studies are compiled in Tables 1-3. Inadequate stability of an ^225Ac complex leading to the loss of radioisotope in vivo is manifested by the accumulation of ^225Ac in the liver, spleen, and bone of mice.^[11,12,32] […] The biodistribution profile of [^225Ac(macropa)]^+ (FIG. 3B) differs markedly from that of ^225Ac(NO3)3. […] Its biodistribution profile was similar to that of [^225Ac(DOTA)]^− (FIG. 3C), which has been previously shown to retain ^225Ac^3+ in vivo.^[7]
# [1] = 15 min post i.v. injection, energy window A (60-120 keV)
# [2] = 15 min post i.v. injection, energy window B (180-260 keV)
# [3] = 15 min post i.v. injection, energy window C (400-480 keV)
# [4] = 1 h post i.v. injection, energy window A (60-120 keV)
# [5] = 1 h post i.v. injection, energy window B (180-260 keV)
# [6] = 1 h post i.v. injection, energy window C (400-480 keV)
# [7] = 5 h post i.v. injection, energy window A (60-120 keV)
# [8] = 5 h post i.v. injection, energy window B (180-260 keV)
# [9] = 5 h post i.v. injection, energy window C (400-480 keV)
# [10] = C57BL/6 mice, i.v., 15 min to 5 h
smiles,measurement,setting,value
O=[N+]([O-])[O-].O=[N+]([O-])[O-].O=[N+]([O-])[O-].[225Ac] [^225Ac(NO3)3],Organ distribution: bladder,[1],1.477 % ID/g
same,Organ distribution: blood,[1],40.966 % ID/g
same,Organ distribution: bone (femur + joint),[1],2.764 % ID/g
same,Organ distribution: brain,[1],0.614 % ID/g
same,Organ distribution: feces,[1],0.240 % ID/g
same,Organ distribution: heart,[1],8.557 % ID/g
same,Organ distribution: kidneys,[1],10.468 % ID/g
same,Organ distribution: large intestines,[1],1.116 % ID/g
same,Organ distribution: liver,[1],22.899 % ID/g
same,Organ distribution: lungs,[1],12.757 % ID/g
same,Organ distribution: pancreas,[1],2.366 % ID/g
same,Organ distribution: small intestines,[1],2.002 % ID/g
same,Organ distribution: spleen,[1],22.733 % ID/g
same,Organ distribution: stomach,[1],2.348 % ID/g
same,Organ distribution: tail,[1],7.459 % ID/g
same,Organ distribution: thyroids,[1],4.391 % ID/g
same,Organ distribution: urine,[1],5.527 % ID/g
same,Organ distribution: bladder,[2],1.6996 % ID/g
same,Organ distribution: blood,[2],41.5628 % ID/g
same,Organ distribution: bone (femur + joint),[2],2.7487 % ID/g
same,Organ distribution: brain,[2],0.6536 % ID/g
same,Organ distribution: feces,[2],0.3857 % ID/g
same,Organ distribution: heart,[2],8.3605 % ID/g
same,Organ distribution: kidneys,[2],9.6424 % ID/g
same,Organ distribution: large intestines,[2],1.1570 % ID/g
same,Organ distribution: liver,[2],23.6091 % ID/g
same,Organ distribution: lungs,[2],12.9714 % ID/g
same,Organ distribution: pancreas,[2],2.2821 % ID/g
same,Organ distribution: small intestines,[2],1.9641 % ID/g
same,Organ distribution: spleen,[2],24.0497 % ID/g
same,Organ distribution: stomach,[2],2.3704 % ID/g
same,Organ distribution: tail,[2],8.0722 % ID/g
same,Organ distribution: thyroids,[2],9.6295 % ID/g
same,Organ distribution: urine,[2],5.0951 % ID/g
same,Organ distribution: bladder,[3],1.9351 % ID/g
same,Organ distribution: blood,[3],42.3521 % ID/g
same,Organ distribution: bone (femur + joint),[3],3.4560 % ID/g
same,Organ distribution: brain,[3],0.6755 % ID/g
same,Organ distribution: feces,[3],0.4896 % ID/g
same,Organ distribution: heart,[3],9.0992 % ID/g
same,Organ distribution: kidneys,[3],14.2266 % ID/g
same,Organ distribution: large intestines,[3],1.5716 % ID/g
same,Organ distribution: liver,[3],24.1147 % ID/g
same,Organ distribution: lungs,[3],14.4797 % ID/g
same,Organ distribution: pancreas,[3],2.4405 % ID/g
same,Organ distribution: small intestines,[3],2.0956 % ID/g
same,Organ distribution: spleen,[3],25.4263 % ID/g
same,Organ distribution: stomach,[3],2.4232 % ID/g
same,Organ distribution: tail,[3],9.1381 % ID/g
same,Organ distribution: thyroids,[3],3.5934 % ID/g
same,Organ distribution: urine,[3],19.8282 % ID/g
same,Organ distribution: bladder,[4],0.9047 % ID/g
same,Organ distribution: blood,[4],20.8234 % ID/g
same,Organ distribution: bone (femur + joint),[4],2.4707 % ID/g
same,Organ distribution: brain,[4],0.2995 % ID/g
same,Organ distribution: feces,[4],0.2189 % ID/g
same,Organ distribution: heart,[4],4.4261 % ID/g
same,Organ distribution: kidneys,[4],7.2170 % ID/g
same,Organ distribution: large intestines,[4],0.6035 % ID/g
same,Organ distribution: liver,[4],39.8269 % ID/g
same,Organ distribution: lungs,[4],8.2412 % ID/g
same,Organ distribution: pancreas,[4],2.1771 % ID/g
same,Organ distribution: small intestines,[4],1.5594 % ID/g
same,Organ distribution: spleen,[4],34.8831 % ID/g
same,Organ distribution: stomach,[4],1.6211 % ID/g
same,Organ distribution: tail,[4],5.7939 % ID/g
same,Organ distribution: thyroids,[4],2.5988 % ID/g
same,Organ distribution: urine,[4],4.5194 % ID/g
same,Organ distribution: bladder,[5],0.8092 % ID/g
same,Organ distribution: blood,[5],21.4460 % ID/g
same,Organ distribution: bone (femur + joint),[5],2.7705 % ID/g
same,Organ distribution: brain,[5],0.3247 % ID/g
same,Organ distribution: feces,[5],0.3300 % ID/g
same,Organ distribution: heart,[5],4.5832 % ID/g
same,Organ distribution: kidneys,[5],6.8770 % ID/g
same,Organ distribution: large intestines,[5],0.5629 % ID/g
same,Organ distribution: liver,[5],41.0995 % ID/g
same,Organ distribution: lungs,[5],8.4426 % ID/g
same,Organ distribution: pancreas,[5],2.1579 % ID/g
same,Organ distribution: small intestines,[5],1.5192 % ID/g
same,Organ distribution: spleen,[5],37.1540 % ID/g
same,Organ distribution: stomach,[5],1.5867 % ID/g
same,Organ distribution: tail,[5],6.4201 % ID/g
same,Organ distribution: thyroids,[5],5.7426 % ID/g
same,Organ distribution: urine,[5],7.0564 % ID/g
same,Organ distribution: bladder,[6],2.2929 % ID/g
same,Organ distribution: blood,[6],11.3736 % ID/g
same,Organ distribution: bone (femur + joint),[6],2.7213 % ID/g
same,Organ distribution: brain,[6],0.4402 % ID/g
same,Organ distribution: feces,[6],0.1122 % ID/g
same,Organ distribution: heart,[6],3.3464 % ID/g
same,Organ distribution: kidneys,[6],6.2070 % ID/g
same,Organ distribution: large intestines,[6],0.4366 % ID/g
same,Organ distribution: liver,[6],23.6180 % ID/g
same,Organ distribution: lungs,[6],5.2078 % ID/g
same,Organ distribution: pancreas,[6],1.8508 % ID/g
same,Organ distribution: small intestines,[6],3.5548 % ID/g
same,Organ distribution: spleen,[6],38.1082 % ID/g
same,Organ distribution: stomach,[6],2.3350 % ID/g
same,Organ distribution: tail,[6],9.0877 % ID/g
same,Organ distribution: thyroids,[6],0.0000 % ID/g
same,Organ distribution: urine,[6],104.9103 % ID/g
same,Organ distribution: bladder,[7],1.4947 % ID/g
same,Organ distribution: blood,[7],1.9886 % ID/g
same,Organ distribution: bone (femur + joint),[7],3.5460 % ID/g
same,Organ distribution: brain,[7],0.0452 % ID/g
same,Organ distribution: feces,[7],0.9445 % ID/g
same,Organ distribution: heart,[7],1.3450 % ID/g
same,Organ distribution: kidneys,[7],4.6910 % ID/g
same,Organ distribution: large intestines,[7],0.6479 % ID/g
same,Organ distribution: liver,[7],59.8156 % ID/g
same,Organ distribution: lungs,[7],4.1871 % ID/g
same,Organ distribution: pancreas,[7],0.4874 % ID/g
same,Organ distribution: small intestines,[7],1.3704 % ID/g
same,Organ distribution: spleen,[7],62.9614 % ID/g
same,Organ distribution: stomach,[7],2.6131 % ID/g
same,Organ distribution: tail,[7],23.4055 % ID/g
same,Organ distribution: thyroids,[7],−2.7052 % ID/g
same,Organ distribution: urine,[7],4.8267 % ID/g
same,Organ distribution: bladder,[8],1.5234 % ID/g
same,Organ distribution: blood,[8],2.0018 % ID/g
same,Organ distribution: bone (femur + joint),[8],3.8533 % ID/g
same,Organ distribution: brain,[8],0.0290 % ID/g
same,Organ distribution: feces,[8],1.0201 % ID/g
same,Organ distribution: heart,[8],1.3948 % ID/g
same,Organ distribution: kidneys,[8],3.8752 % ID/g
same,Organ distribution: large intestines,[8],0.6744 % ID/g
same,Organ distribution: liver,[8],62.0765 % ID/g
same,Organ distribution: lungs,[8],4.3379 % ID/g
same,Organ distribution: pancreas,[8],0.4455 % ID/g
same,Organ distribution: small intestines,[8],1.2201 % ID/g
same,Organ distribution: spleen,[8],65.9117 % ID/g
same,Organ distribution: stomach,[8],2.5322 % ID/g
same,Organ distribution: tail,[8],25.4744 % ID/g
same,Organ distribution: thyroids,[8],−4.6044 % ID/g
same,Organ distribution: urine,[8],3.3142 % ID/g
same,Organ distribution: bladder,[9],3.4975 % ID/g
same,Organ distribution: blood,[9],2.1769 % ID/g
same,Organ distribution: bone (femur + joint),[9],3.5851 % ID/g
same,Organ distribution: brain,[9],0.0430 % ID/g
same,Organ distribution: feces,[9],0.8535 % ID/g
same,Organ distribution: heart,[9],1.2018 % ID/g
same,Organ distribution: kidneys,[9],4.2061 % ID/g
same,Organ distribution: large intestines,[9],1.0259 % ID/g
same,Organ distribution: liver,[9],54.1727 % ID/g
same,Organ distribution: lungs,[9],5.4923 % ID/g
same,Organ distribution: pancreas,[9],0.4643 % ID/g
same,Organ distribution: small intestines,[9],1.2922 % ID/g
same,Organ distribution: spleen,[9],62.2357 % ID/g
same,Organ distribution: stomach,[9],2.0358 % ID/g
same,Organ distribution: tail,[9],28.4443 % ID/g
same,Organ distribution: thyroids,[9],−0.4455 % ID/g
same,Organ distribution: urine,[9],5.8548 % ID/g
same,blood clearance and excretion (in words),[10],slow blood clearance and excretion
same,organ accumulation (in words),[10],large accumulation in the liver and spleen
